Measurements as given in patent US10829501B2 (BRISTOL-MYERS SQUIBB COMPANY, priority 2016, dated 2020).
pIC50: −log10 of the molar value.

Target: ROCK2 (Homo sapiens, UniProt O75116)
Assay: ROCK2 kinase inhibition assay (LABCHIP 3000 Reader, FITC peptide substrate);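 also: rho kinase reaction read by separating phosphorylated from unphosphorylated peptide on chip, with inhibition of kinase activity computed per concentration across a dose-response series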

Sequence of ROCK2 (O75116 whole entry, species assumed): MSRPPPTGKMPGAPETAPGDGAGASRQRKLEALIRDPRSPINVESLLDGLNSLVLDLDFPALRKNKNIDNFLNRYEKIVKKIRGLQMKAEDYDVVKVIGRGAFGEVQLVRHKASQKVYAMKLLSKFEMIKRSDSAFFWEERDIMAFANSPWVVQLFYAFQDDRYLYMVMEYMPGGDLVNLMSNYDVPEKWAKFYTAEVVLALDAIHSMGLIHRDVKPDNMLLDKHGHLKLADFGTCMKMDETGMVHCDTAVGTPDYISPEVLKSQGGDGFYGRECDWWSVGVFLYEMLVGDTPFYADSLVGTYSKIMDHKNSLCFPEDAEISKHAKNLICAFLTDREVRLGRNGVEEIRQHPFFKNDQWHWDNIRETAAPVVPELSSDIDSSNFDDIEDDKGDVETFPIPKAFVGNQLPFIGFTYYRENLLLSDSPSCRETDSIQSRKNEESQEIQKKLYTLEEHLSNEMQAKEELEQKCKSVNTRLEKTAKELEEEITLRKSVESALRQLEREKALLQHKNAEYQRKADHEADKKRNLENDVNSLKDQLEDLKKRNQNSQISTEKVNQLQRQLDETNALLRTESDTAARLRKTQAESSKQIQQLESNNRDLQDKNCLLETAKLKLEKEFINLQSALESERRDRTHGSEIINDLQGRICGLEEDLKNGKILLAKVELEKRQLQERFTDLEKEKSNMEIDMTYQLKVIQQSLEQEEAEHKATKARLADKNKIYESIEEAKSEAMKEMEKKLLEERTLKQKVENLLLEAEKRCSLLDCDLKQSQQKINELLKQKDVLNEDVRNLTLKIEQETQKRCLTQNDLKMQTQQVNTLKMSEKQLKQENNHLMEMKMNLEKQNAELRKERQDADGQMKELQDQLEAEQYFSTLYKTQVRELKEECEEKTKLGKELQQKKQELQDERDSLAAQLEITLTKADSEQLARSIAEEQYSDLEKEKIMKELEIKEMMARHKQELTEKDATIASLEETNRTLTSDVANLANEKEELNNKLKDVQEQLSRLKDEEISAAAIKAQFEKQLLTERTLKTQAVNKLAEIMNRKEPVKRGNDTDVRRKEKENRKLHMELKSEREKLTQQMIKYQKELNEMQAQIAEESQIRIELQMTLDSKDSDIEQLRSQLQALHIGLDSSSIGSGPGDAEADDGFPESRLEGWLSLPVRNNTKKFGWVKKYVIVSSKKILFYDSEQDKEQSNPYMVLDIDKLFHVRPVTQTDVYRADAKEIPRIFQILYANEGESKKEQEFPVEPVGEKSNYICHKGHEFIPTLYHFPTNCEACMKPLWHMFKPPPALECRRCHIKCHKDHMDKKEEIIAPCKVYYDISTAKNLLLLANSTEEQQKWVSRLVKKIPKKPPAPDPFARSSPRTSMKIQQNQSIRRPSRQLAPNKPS

Row | Structure (SMILES) | pIC50
1 | NC(=O)c1cccnc1O[C@H]1CC2(C[C@H](NC(=O)c3cnn4c(C5CC5)c(OC5COC5)ccc34)C2)C1 (stereo partly drawn) [Example 343, N-((aR)-6-((3-carbamoylpyridin-2-yl)oxy)spiro[3.3]heptan-2-yl)-7-cyclopropyl-6-(oxetan-3-yloxy)pyrazolo[1,5-a]pyridine-3-carboxamide] | 7.30 to 8.30
2 | NC(=O)c1cccnc1O[C@H]1CC2(C[C@H](NC(=O)c3cnn4c(C5CC5)c(OCC5CCO5)ccc34)C2)C1 (stereo partly drawn) [Example 344, N-((aR)-6-((3-carbamoylpyridin-2-yl)oxy)spiro[3.3]heptan-2-yl)-7-cyclopropyl-6-(oxetan-2-ylmethoxy)pyrazolo[1,5-a]pyridine-3-carboxamide] | 7.30 to 8.30
3 | NC(=O)c1cccnc1O[C@H]1CC2(C[C@H](NC(=O)c3cnc4cnccn34)C2)C1 (stereo partly drawn) [Example 345, N-((aR)-6-((3-carbamoylpyridin-2-yl)oxy)spiro[3.3]heptan-2-yl)imidazo[1,2-a]pyrazine-3-carboxamide] | 5.60 to 6.60
4 | NC(=O)c1cccnc1O[C@H]1CC2(C[C@H](NC(=O)c3cnc4c(C(F)(F)F)cccn34)C2)C1 (stereo partly drawn) [Example 346, N-((aR)-6-((3-carbamoylpyridin-2-yl)oxy)spiro[3.3]heptan-2-yl)-8-(trifluoromethyl)imidazo[1,2-a]pyridine-3-carboxamide] | 6.60 to 7.30
5 | COC(=O)N1CC(Oc2ccc3c(C(=O)N[C@H]4CC5(C4)C[C@H](Oc4ncccc4C(N)=O)C5)cnn3c2)C1 (stereo partly drawn) [Example 347, methyl 3-((3-(((aR)-6-((3-carbamoylpyridin-2-yl)oxy)spiro[3.3]heptan-2-yl)carbamoyl)pyrazolo[1,5-a]pyridin-6-yl)oxy)azetidine-1-carboxylate] | 7.30 to 8.30
6 | COc1ccn2c(C(=O)N[C@H]3CC4(C3)C[C@H](Oc3ncccc3C(N)=O)C4)cnc2c1 (stereo partly drawn) [Example 348, N-((aR)-6-((3-carbamoylpyridin-2-yl)oxy)spiro[3.3]heptan-2-yl)-7-methoxyimidazo[1,2-a]pyridine-3-carboxamide] | 6.60 to 7.30
7 | NC(=O)c1cccnc1O[C@H]1CC2(C[C@H](NC(=O)c3cnn4cc(N5CC6(COC6)C5)ccc34)C2)C1 (stereo partly drawn) [Example 349, N-((aR)-6-((3-carbamoylpyridin-2-yl)oxy)spiro[3.3]heptan-2-yl)-6-(2-oxa-6-azaspiro[3.3]heptan-6-yl)pyrazolo[1,5-a]pyridine-3-carboxamide] | 7.30 to 8.30
8 | NC(=O)c1cccnc1O[C@H]1CC2(C[C@H](NC(=O)c3cnn4cc(OC5CC(F)(F)C5)ccc34)C2)C1 (stereo partly drawn) [Example 350, N-((aR)-6-((3-carbamoylpyridin-2-yl)oxy)spiro[3.3]heptan-2-yl)-6-(3,3-difluorocyclobutoxy)pyrazolo[1,5-a]pyridine-3-carboxamide] | 7.30 to 8.30
9 | NC(=O)c1cccnc1O[C@H]1CC2(C[C@H](NC(=O)c3cnn4c(C5CC5)c(OC5CCS(=O)(=O)CC5)ccc34)C2)C1 (stereo partly drawn) [Example 351, N-((aR)-6-((3-carbamoylpyridin-2-yl)oxy)spiro[3.3]heptan-2-yl)-7-cyclopropyl-6-((1,1-dioxidotetrahydro-2H-thiopyran-4-yl)oxy)pyrazolo[1,5-a]pyridine-3-carboxamide] | > 8.30
10 | CS(=O)(=O)CCCOc1ccc2c(C(=O)N[C@H]3CC4(C3)C[C@H](Oc3ncccc3C(N)=O)C4)cnn2c1C1CC1 (stereo partly drawn) [Example 352, N-((aR)-6-((3-carbamoylpyridin-2-yl)oxy)spiro[3.3]heptan-2-yl)-7-cyclopropyl-6-(3-(methylsulfonyl)propoxy)pyrazolo[1,5-a]pyridine-3-carboxamide] | 7.30 to 8.30
11 | N#Cc1ccn2c(C(=O)N[C@H]3CC4(C3)C[C@H](Oc3ncccc3C(N)=O)C4)cnc2c1 (stereo partly drawn) [Example 353, N-((aR)-6-((3-carbamoylpyridin-2-yl)oxy)spiro[3.3]heptan-2-yl)-7-cyanoimidazo[1,2-a]pyridine-3-carboxamide] | 6.60 to 7.30
12 | NC(=O)c1cccnc1O[C@H]1CC2(C[C@H](NC(=O)c3cnc4cc(OC5CC(F)(F)C5)ccn34)C2)C1 (stereo partly drawn) [Example 360, N-((aR)-6-((3-carbamoylpyridin-2-yl)oxy)spiro[3.3]heptan-2-yl)-7-(3,3-difluorocyclobutoxy)imidazo[1,2-a]pyridine-3-carboxamide] | 7.30 to 8.30

More lines, now with the values ahead:

Row | pIC50 | Structure (SMILES)
13 | 6.60 to 7.30 | N#Cc1cccn2c(C(=O)N[C@H]3CC4(C3)C[C@H](Oc3ncccc3C(N)=O)C4)cnc12 (stereo partly drawn) [Example 354, N-((aR)-6-((3-carbamoylpyridin-2-yl)oxy)spiro[3.3]heptan-2-yl)-8-cyanoimidazo[1,2-a]pyridine-3-carboxamide]
14 | 6.60 to 7.30 | NC(=O)c1cccnc1O[C@H]1CC2(C[C@H](NC(=O)c3cnn4cc(N5CC(CO)(CO)C5)ccc34)C2)C1 (some centres unmarked) [Example 355]
15 | 7.30 to 8.30 | NC(=O)c1cccnc1O[C@H]1CC2(C[C@H](NC(=O)c3cnc4cc(N5CCOCC5)ccn34)C2)C1 (stereo partly drawn) [Example 356, N-((aR)-6-((3-carbamoylpyridin-2-yl)oxy)spiro[3.3]heptan-2-yl)-7-morpholinoimidazo[1,2-a]pyridine-3-carboxamide]
16 | > 8.30 | Cn1cc(-c2ccc3c(C(=O)N[C@H]4CC5(C4)C[C@H](Oc4ncccc4C(N)=O)C5)cnn3c2C2CC2)cn1 (stereo partly drawn) [Example 357, N-((aR)-6-((3-carbamoylpyridin-2-yl)oxy)spiro[3.3]heptan-2-yl)-7-cyclopropyl-6-(1-methyl-1H-pyrazol-4-yl)pyrazolo[1,5-a]pyridine-3-carboxamide]
17 | 7.30 to 8.30 | NC(=O)c1cccnc1O[C@H]1CC2(C[C@H](NC(=O)c3cnc4cc(NCC(F)F)ccn34)C2)C1 (stereo partly drawn) [Example 358, N-((aR)-6-((3-carbamoylpyridin-2-yl)oxy)spiro[3.3]heptan-2-yl)-7-((2,2-difluoroethyl)amino)imidazo[1,2-a]pyridine-3-carboxamide]
18 | 6.60 to 7.30 | [H][C@]1(Oc2ncccc2C(N)=O)C[C@@]2(C[C@H](NC(=O)c3cnc4cc(N5CC(N)C5)ccn34)C2)C1 (stereo partly drawn) [Example 359, 7-(3-aminoazetidin-1-yl)-N-((aR)-6-((3-carbamoylpyridin-2-yl)oxy)spiro[3.3]heptan-2-yl)imidazo[1,2-a]pyridine-3-carboxamide]
19 | 6.60 to 7.30 | [H][C@]1(Oc2ncccc2C(N)=O)C[C@@]2(C[C@H](NC(=O)c3cnc4cc(Cl)ccn34)C2)C1 (stereo partly drawn) [Example 361, N-((aR)-6-((3-carbamoylpyridin-2-yl)oxy)spiro[3.3]heptan-2-yl)-7-chloroimidazo[1,2-a]pyridine-3-carboxamide]
20 | 6.60 to 7.30 | NC(=O)c1cccnc1O[C@H]1CC2(C[C@H](NC(=O)c3cnc4cc(N5CCS(=O)(=O)CC5)ccn34)C2)C1 (stereo partly drawn) [Example 362, N-((aR)-6-((3-carbamoylpyridin-2-yl)oxy)spiro[3.3]heptan-2-yl)-7-(1,1-dioxidothiomorpholino)imidazo[1,2-a]pyridine-3-carboxamide]
21 | > 8.30 | [2H]C([2H])([2H])n1cc(-c2ccc3c(C(=O)N[C@H]4CC5(C4)C[C@H](Oc4ncccc4C(N)=O)C5)nnn3c2)cn1 (stereo partly drawn) [Example 363, N-((aR)-6-((3-carbamoylpyridin-2-yl)oxy)spiro[3.3]heptan-2-yl)-6-(1-(^2H3)methyl-1H-pyrazol-4-yl)-[1,2,3]triazolo[1,5-a]pyridine-3-carboxamide]
22 | > 8.30 | NC(=O)c1cccnc1O[C@H]1CC2(C[C@H](NC(=O)c3nnn4cc(-c5cnn(C6CC6)c5)ccc34)C2)C1 (stereo partly drawn) [Example 364, N-((aR)-6-((3-carbamoylpyridin-2-yl)oxy)spiro[3.3]heptan-2-yl)-6-(1-cyclopropyl-1H-pyrazol-4-yl)-[1,2,3]triazolo[1,5-a]pyridine-3-carboxamide]
23 | 7.30 to 8.30 | CC(C)(O)Cn1cc(-c2ccc3c(C(=O)N[C@H]4CC5(C4)C[C@H](Oc4ncccc4C(N)=O)C5)nnn3c2)cn1 (stereo partly drawn) [Example 365, N-((aR)-6-((3-carbamoylpyridin-2-yl)oxy)spiro[3.3]heptan-2-yl)-6-(1-(2-hydroxy-2-methylpropyl)-1H-pyrazol-4-yl)-[1,2,3]triazolo[1,5-a]pyridine-3-carboxamide]
24 | 7.30 to 8.30 | CC(C)n1cc(-c2ccc3c(C(=O)N[C@H]4CC5(C4)C[C@H](Oc4ncccc4C(N)=O)C5)nnn3c2)c(C(F)(F)F)n1 (stereo partly drawn) [Example 366, N-((aR)-6-((3-carbamoylpyridin-2-yl)oxy)spiro[3.3]heptan-2-yl)-6-(1-isopropyl-3-(trifluoromethyl)-1H-pyrazol-4-yl)-[1,2,3]triazolo[1,5-a]pyridine-3-carboxamide]
25 | > 8.30 | Cn1cc(-c2ccc3c(C(=O)N[C@H]4CC5(C4)C[C@H](Oc4ncccc4C(N)=O)C5)nnn3c2)cn1 (stereo partly drawn) [Example 367, N-((aR)-6-((3-carbamoylpyridin-2-yl)oxy)spiro[3.3]heptan-2-yl)-6-(1-methyl-1H-pyrazol-4-yl)-[1,2,3]triazolo[1,5-a]pyridine-3-carboxamide]
26 | 7.30 to 8.30 | [H][C@]1(Oc2ncccc2C(N)=O)C[C@@]2(C[C@H](NC(=O)c3nnn4cc(Br)ccc34)C2)C1 (stereo partly drawn) [Example 368, 6-bromo-N-((aR)-6-((3-carbamoylpyridin-2-yl)oxy)spiro[3.3]heptan-2-yl)-[1,2,3]triazolo[1,5-a]pyridine-3-carboxamide]
27 | 5.60 to 6.60 | [H][C@]1(Oc2ncccc2C(N)=O)C[C@@]2(C[C@H](NC(=O)c3nnn4cc(N5CCOCC5)ccc34)C2)C1 (stereo partly drawn) [Example 369, N-((aR)-6-((3-carbamoylpyridin-2-yl)oxy)spiro[3.3]heptan-2-yl)-6-morpholino-[1,2,3]triazolo[1,5-a]pyridine-3-carboxamide]
28 | > 8.30 | [H][C@]1(Oc2ncccc2C(N)=O)C[C@@]2(C[C@H](NC(=O)c3cnc4cc(-c5ccc(=O)n(C)c5)ccn34)C2)C1 (stereo partly drawn) [Example 370, N-((aR)-6-((3-carbamoylpyridin-2-yl)oxy)spiro[3.3]heptan-2-yl)-7-(1-methyl-6-oxo-1,6-dihydropyridin-3-yl)imidazo[1,2-a]pyridine-3-carboxamide]
29 | 7.30 to 8.30 | [H][C@]1(Oc2ncccc2C(N)=O)C[C@@]2(C[C@H](NC(=O)c3cnn4cc(-c5ccc(=O)n(C)c5)ccc34)C2)C1 (stereo partly drawn) [Example 371, N-((aR)-6-((3-carbamoylpyridin-2-yl)oxy)spiro[3.3]heptan-2-yl)-6-(1-methyl-6-oxo-1,6-dihydropyridin-3-yl)pyrazolo[1,5-a]pyridine-3-carboxamide]
